# Measurements: patent US11806350B2, “Prevention and/or treatment of CNS disorders” (ILDONG PHARMACEUTICAL CO., LTD., priority 2020, dated 2023)
# Experiments:
# [1] = test system: unilateral 6-hydroxydopamine (6-OHDA) lesion animal model of Parkinson's Disease; assay: Cylinder test (forelimb use asymmetry) in 6-OHDA lesioned rats; type: in vivo, Wistar Han rats
# Procedure: (§1) To generate animal model of Parkinson's Disease (PD), a number of 67 female Wistar Han rats of approximately 9 weeks of age received unilateral 6-hydroxydopamine (6-OHDA) lesion. To induce the 6-OHDA lesion, each of the animals received one injection with 2 μl (4 μg/μl) in the medial forebrain bundle (MFB). 6-OHDA is widely used to lesion the nigrostriatal dopaminergic system as a model of PD.
# (§2) Three weeks after the injections, cylinder test for the evaluation of locomotor asymmetry was performed to determine the efficacy of the 6-OHDA lesion (4 animals died before testing). Based on the results of the cylinder test, 6-OHDA lesioned animals were further included in the study. In compound standalone testing groups (B+C), animals (n=52) were received L-DOPA (Levodopa or L-3,4-dihydroxyphenylalanine) priming (2 animals died before group allocation). […]
# Cylinder test was performed on treatment days (4 days after end of L-DOPA priming) with all animals used for testing. […] Each animal was individually evaluated for 5 minutes. The number of contacts on the cylinder wall with the right paw, left and both paws simultaneously were counted. The results were given in percentage and calculating is done as follows: the test total sum of contacts on the cylinder wall with the right paw, left paw and both totaled 100%, based on this, a percentage value for each finding was calculated (Araujo, 2013).
# [2] = test system: unilateral 6-hydroxydopamine (6-OHDA) lesion animal model of Parkinson's Disease; assay: Axial, limb and orolingual abnormal involuntary movement scores (ALO AIMs) in 6-OHDA lesioned, L-DOPA primed rats; type: in vivo, Wistar Han rats; settings: after 4 days L-DOPA priming wash out; per oral (1-30 mg/kg) or intranasal (0.3-10 mg/kg); FIG. 2B
# Procedure: as §1
# as §2, with “allocation). Animals (n=11) not showing symptoms were eliminated without any further administration of test compounds or tissue collection.” for “allocation).”
# ALO test was performed on treatment days (4 days after end of L-DOPA priming) with all animals used for the compound stand alone testing. ALO AIMs were scored starting 5 min […] after the vehicle, L-DOPA/Benserazide and IN administration of the test compound, and 2h (+/−5 min) after PO administration of the test compound and every 20 min thereafter for 3 h. […]
# ALO AIMs were scored for 1 min, every 20 min for 180 min. […]
# [3] = biological target: T1, Human recombinant adenosine A2A receptors (Homo sapiens, UniProt P29274); assay: Human adenosine A2A receptor binding assay ([3H]CGS-21680); settings: membranes of HEK-293 cells, 50 nM [3H]CGS-21680, 90 minutes at 25° C.; read-out: hA2A Ki
# T1 construct: expressed in transfected cells; host or cells: HEK-293 cells (membrane preparation)
# T1 sequence (P29274 whole entry): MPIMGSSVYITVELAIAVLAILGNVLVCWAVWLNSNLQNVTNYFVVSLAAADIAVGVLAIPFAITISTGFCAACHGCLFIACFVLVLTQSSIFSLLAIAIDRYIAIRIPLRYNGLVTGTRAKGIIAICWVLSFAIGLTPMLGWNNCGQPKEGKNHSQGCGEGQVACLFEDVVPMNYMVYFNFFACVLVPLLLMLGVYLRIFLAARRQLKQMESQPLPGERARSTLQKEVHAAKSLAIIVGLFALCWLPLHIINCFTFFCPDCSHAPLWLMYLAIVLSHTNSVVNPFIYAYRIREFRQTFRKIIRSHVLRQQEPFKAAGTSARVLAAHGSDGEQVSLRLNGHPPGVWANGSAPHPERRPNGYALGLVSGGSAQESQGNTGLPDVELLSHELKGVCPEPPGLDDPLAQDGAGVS
# Procedure: 2.2 Human Adenosine A2A Receptor Binding Assay
# Test compound is weighed, dissolved in DMSO to make a stock solution of 10 mM, diluted with DMSO to prepare working solutions, then 100-fold diluted to the indicated concentrations. Human recombinant adenosine A2A receptors expressed in HEK-293 cells were used to prepare membranes in incubation buffer (50 mM Tris-HCl, pH 7.4, 10 mM MgCl2, 1 mM EDTA, 2 U/ml Adenosine Deaminase). Test compound or vehicle (2.2 μL) was added in 200 μL of membranes and incubated with 20 μL of 50 nM [^3H] […] Non-specific binding was estimated in the presence of 50 μM NECA (5′-N-ethylcarboxamidoadenosine). The incubation was stopped by vacuum filtration onto 0.3% PEI (polyethylenimine) presoaked GF/B filters using a harvester followed by four washes with ice-cold 50 mM Tris-HCl, pH 7.4, and the radioactivity on GF/B filtermats counted in a scintillation counter (PerkinElmer TOPCOUNT™) to determine [^3H] […] Final concentration of vehicle DMSO is 1%.
# (§3) Data is fitted using the non-linear curve fitting routines in Meth-IQ software (ID Business Solutions Ltd., UK). IC50 is converted to Ki by Cheng-Prusoff equation: Ki=IC50/(1+[L]/KD) where [L] is concentration of radiolabeled ligand used in the assay.
# [4] = biological target: T2, Human recombinant adenosine A1 receptors (Homo sapiens, UniProt P30542); assay: Human adenosine A1 receptor binding assay ([3H]DPCPX); settings: membranes of CHO-K1 cells, 1 nM [3H]DPCPX, 90 minutes at 25° C.; read-out: hAl Ki
# T2 construct: expressed in transfected cells; host or cells: CHO-K1 cells (membrane preparation)
# T2 sequence (P30542 1-326): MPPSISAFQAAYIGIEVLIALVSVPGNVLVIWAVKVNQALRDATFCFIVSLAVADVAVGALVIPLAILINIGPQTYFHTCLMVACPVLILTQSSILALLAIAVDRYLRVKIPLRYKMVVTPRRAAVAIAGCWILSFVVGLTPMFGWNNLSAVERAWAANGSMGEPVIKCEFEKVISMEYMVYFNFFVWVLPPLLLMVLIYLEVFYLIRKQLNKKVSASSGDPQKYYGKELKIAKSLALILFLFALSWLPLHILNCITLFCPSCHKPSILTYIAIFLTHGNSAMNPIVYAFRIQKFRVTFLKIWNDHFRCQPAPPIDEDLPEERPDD
# Procedure: 2.1 Human Adenosine A1 Receptor Binding Assay
# Test compound is weighed, dissolved in DMSO to make a stock solution of 10 mM, diluted with DMSO to prepare working solutions, then 100-fold diluted to the indicated concentrations. Human recombinant adenosine A1 receptors expressed in CHO-K1 cells were used to prepare membranes in incubation buffer (20 mM HEPES (4-(2-hydroxyethyl)-1-piperazineethanesulfonic acid) pH 7.4, 10 mM MgCl2, 100 mM NaCl). Test compound or vehicle (2.2 μL) was added in 200 μL of membranes and incubated with 20 μL of 1 nM [^3H] DPCPX (8-cyclopentyl-1,3-dipropylxanthine) for 90 minutes at 25° C. Non-specific binding was estimated in the presence of 100 μM R(−)-PIA ((R)—N-(1-methyl-2-phenylethyl)adenosine). The incubation was stopped by vacuum filtration onto 0.3% PEI (polyethylenimine) presoaked GF/B filters using a harvester followed by four washes with ice-cold 50 mM Tris-HCl, pH 7.4, and the radioactivity on GF/B filtermats counted in a scintillation counter (PerkinElmer Topcount™) to determine [^3H] DPCPX specifically bound. Final concentration of vehicle DMSO is 1%.
# as §3
Compound,"contralateral limb usage in cylinder test ([1]; IN route and PO route, compared to the vehicle treated group, FIGS. 3A, 3B)","contralateral limb usage in cylinder test, intranasal compared to PO administration ([1]; intranasal administration compared to the PO administration group)",L-DOPA/Benserazide induced dyskinesia-like side effects (ALO AIM scores) [2],Ki [3],Ki [4]
"N#Cc1cccc(-c2nc(N)nc3c2cnn3Cc2ccc(N)c(C(F)(F)F)c2)c1 [Compound 210, 3-(6-amino-1-(4-amino-3-(trifluoromethyl)benzyl)-1H-pyrazolo[3,4-d]pyrimidine-4-yl)benzonitrile]",concentration related trend towards increased contralateral limb usage,more pronounced concentration related trend,did not induce L-DOPA/Benserazide induced dyskinesia-like side effects,< 20 nM,≤ 100 nM
"N#Cc1cncc(-c2nc(N)nc3c2cnn3Cc2c(F)cccc2F)c1 [Compound 233, 5-(6-amino-1-(2,6-difluorobenzyl)-1H-pyrazolo[3,4-d]pyrimidine-4-yl)nicotinonitrile]",–,–,–,200 to 1000 nM,1000 to 10000 nM
"N#Cc1cc(-c2nc(N)nc3c2cnn3Cc2c(F)cccc2F)ccn1 [Compound 234, 4-[6-amino-1-[(2,6-difluorophenyl)methyl]pyrazolo[3,4-d]pyrimidine-4-yl]pyridine-2-carbonitrile]",–,–,–,200 to 1000 nM,1000 to 10000 nM
"N#Cc1ccnc(-c2nc(N)nc3c2cnn3Cc2ccc(N)c(C(F)(F)F)c2)c1 [Compound 235, 2-[6-amino-1-[[4-amino-3-(trifluoromethyl)phenyl]methyl]pyrazolo[3,4-d]pyrimidine-4-yl]pyridine-4-carbonitrile]",–,–,–,< 20 nM,100 to 1000 nM
